Assay results reported in ChEMBL document CHEMBL1201862, “PubChem BioAssay data set” (2004).
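Each compound was tested at five concentrations against cells in 96-well plates for 48 hours. GI50: concentration for 50% inhibition of growth.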 Activity calls are given as the source filed them. No stated cut-off is given here; in the data, active = GI50 up to about 1.1 µM and inactive = higher.

Tests used:
Experiment in all cases: NCI anticancer screen, dose series, 48 h
[1] = tested on: UACC-257
[2] = tested on: KM12
[3] = tested on: PC-3
[4] = tested on: SK-MEL-28
[5] = tested on: MOLT-4
[6] = tested on: CCRF-CEM
[7] = tested on: HOP-92
[8] = tested on: U-251
[9] = tested on: M14
[10] = tested on: A549
[11] = tested on: SF-539
[12] = tested on: SK-MEL-5
[13] = tested on: TK-10
[14] = tested on: NCI-H460
[15] = tested on: DU-145
[16] = tested on: HCC 2998
[17] = tested on: A498
[18] = tested on: NCI-H23
[19] = tested on: ACHN
[20] = tested on: SW-620
[21] = tested on: NCI-H226
[22] = tested on: SK-MEL-2
[23] = tested on: OVCAR-8
[24] = tested on: HCT-116
[25] = tested on: 786-0
[26] = tested on: SK-OV-3
[27] = tested on: MDA-N
[28] = tested on: HL-60
[29] = tested on: MDA-MB-231
[30] = tested on: RXF 393
[31] = tested on: EKVX
[32] = tested on: OVCAR-3
[33] = tested on: SR
[34] = tested on: IGROV-1
[35] = tested on: NCI-H522
[36] = tested on: HT-29
[37] = tested on: SNB-75
[38] = tested on: COLO 205
[39] = tested on: UO-31
[40] = tested on: CAKI-1
[41] = tested on: SF-295
[42] = tested on: Hs-578T
[43] = tested on: BT-549
[44] = tested on: MDA-MB-435
[45] = tested on: HOP-62
[46] = tested on: SNB-19
[47] = tested on: HCT-15
[48] = tested on: SF-268
[49] = tested on: LOX IMVI
[50] = tested on: RPMI-8226
[51] = tested on: OVCAR-5
[52] = tested on: UACC-62
[53] = tested on: NCI/ADR-RES
[54] = tested on: MCF7
[55] = tested on: SN12C
[56] = tested on: T47D
[57] = tested on: OVCAR-4
[58] = tested on: K562
[59] = tested on: Malme-3M

Compound: O=c1c2cc(I)ccc2nc(SCc2nnco2)n1Cc1ccccc1
- GI50 [1]: > 100 µM (inactive)
- GI50 [2]: > 100 µM (inactive)
- GI50 [3]: > 100 µM (inactive)
- GI50 [4]: > 100 µM (inactive)
- GI50 [5]: 0.1 µM (active)
- GI50 [6]: 10.8 µM (inactive)
- GI50 [7]: 35.6 µM (inactive)
- GI50 [8]: > 100 µM (inactive)
- GI50 [9]: > 100 µM (inactive)
- GI50 [10]: > 100 µM (inactive)
- GI50 [11]: > 100 µM (inactive)
- GI50 [12]: > 100 µM (inactive)
- GI50 [13]: 87.9 µM (inactive)
- GI50 [14]: > 100 µM (inactive)
- GI50 [15]: > 100 µM (inactive)
- GI50 [16]: 96.2 µM (inactive)
- GI50 [17]: 50.8 µM (inactive)
- GI50 [18]: > 100 µM (inactive)
- GI50 [19]: > 100 µM (inactive)
- GI50 [20]: > 100 µM (inactive)
- GI50 [21]: > 100 µM (inactive)
- GI50 [22]: 81.8 µM (inactive)
- GI50 [23]: > 100 µM (inactive)
- GI50 [24]: > 100 µM (inactive)
- GI50 [25]: 35.7 µM (inactive)
- GI50 [26]: > 100 µM (inactive)
- GI50 [27]: > 100 µM (inactive)
- GI50 [28]: 17.4 µM (inactive)
- GI50 [29]: 78.5 µM (inactive)
- GI50 [30]: 58.1 µM (inactive)
- GI50 [31]: 29 µM (inactive)
- GI50 [32]: > 100 µM (inactive)
- GI50 [33]: > 100 µM (inactive)
- GI50 [34]: 80.7 µM (inactive)
- GI50 [35]: 44 µM (inactive)
- GI50 [36]: 60.5 µM (inactive)
- GI50 [37]: 56.5 µM (inactive)
- GI50 [38]: > 100 µM (inactive)
- GI50 [39]: 1.39 µM (inactive)
- GI50 [40]: > 100 µM (inactive)
- GI50 [41]: 98.2 µM (inactive)
- GI50 [42]: 31.7 µM (inactive)
- GI50 [43]: > 100 µM (inactive)
- GI50 [44]: > 100 µM (inactive)
- GI50 [45]: 98.4 µM (inactive)
- GI50 [46]: > 100 µM (inactive)
- GI50 [47]: > 100 µM
- GI50 [48]: > 100 µM (inactive)
- GI50 [49]: > 100 µM (inactive)
- GI50 [50]: > 100 µM (inactive)
- GI50 [51]: > 100 µM (inactive)
- GI50 [52]: 73.8 µM (inactive)
- GI50 [53]: > 100 µM (inactive)
- GI50 [54]: 81.1 µM (inactive)
- GI50 [55]: 49.1 µM (inactive)
- GI50 [56]: > 100 µM (inactive)
- GI50 [57]: > 100 µM (inactive)

Compound: Nc1nc(=O)n(C2OC(CO)C(O)C2O)c2ncc(-c3ccc(-c4ccccc4)cc3)nc12 (configuration not stated)
- GI50 [1]: > 100 µM (inactive)
- GI50 [2]: > 100 µM (inactive)
- GI50 [3]: > 100 µM (inactive)
- GI50 [5]: > 100 µM (inactive)
- GI50 [6]: 9.62 µM (inactive)
- GI50 [7]: > 100 µM (inactive)
- GI50 [8]: 31.3 µM (inactive)
- GI50 [10]: > 100 µM (inactive)
- GI50 [11]: > 100 µM (inactive)
- GI50 [12]: > 100 µM (inactive)
- GI50 [13]: > 100 µM (inactive)
- GI50 [14]: > 100 µM (inactive)
- GI50 [15]: > 100 µM (inactive)
- GI50 [16]: > 100 µM (inactive)
- GI50 [17]: > 100 µM (inactive)
- GI50 [18]: > 100 µM (inactive)
- GI50 [19]: > 100 µM (inactive)
- GI50 [20]: > 100 µM (inactive)
- GI50 [21]: 24.1 µM (inactive)
- GI50 [22]: > 100 µM (inactive)
- GI50 [23]: > 100 µM (inactive)
- GI50 [24]: > 100 µM (inactive)
- GI50 [25]: 28.4 µM (inactive)
- GI50 [26]: > 100 µM (inactive)
- GI50 [27]: > 100 µM (inactive)
- GI50 [58]: > 100 µM (inactive)
- GI50 [29]: 21 µM (inactive)
- GI50 [30]: > 100 µM (inactive)
- GI50 [31]: 94.8 µM (inactive)
- GI50 [33]: 3.63 µM (inactive)
- GI50 [34]: > 100 µM (inactive)
- GI50 [35]: > 100 µM (inactive)
- GI50 [36]: > 100 µM (inactive)
- GI50 [37]: 28.4 µM (inactive)
- GI50 [38]: > 100 µM (inactive)
- GI50 [39]: > 100 µM (inactive)
- GI50 [40]: > 100 µM (inactive)
- GI50 [41]: > 100 µM (inactive)
- GI50 [42]: > 100 µM (inactive)
- GI50 [43]: > 100 µM (inactive)
- GI50 [44]: > 100 µM (inactive)
- GI50 [45]: 60 µM (inactive)
- GI50 [46]: 82.2 µM (inactive)
- GI50 [47]: > 100 µM
- GI50 [48]: > 100 µM (inactive)
- GI50 [49]: 83.2 µM (inactive)
- GI50 [50]: > 100 µM (inactive)
- GI50 [51]: > 100 µM (inactive)
- GI50 [52]: 66.4 µM (inactive)
- GI50 [53]: > 100 µM (inactive)
- GI50 [59]: > 100 µM (inactive)
- GI50 [54]: 31.3 µM (inactive)
- GI50 [55]: > 100 µM (inactive)
- GI50 [56]: > 100 µM (inactive)
- GI50 [57]: > 100 µM (inactive)
